Test results: patent publication US7666875B2, “Hydantoin compounds” (Eisai R&D Management Co., Ltd., priority 2005, dated 2010)
Where two headings read alike, the source gives them in different places.

Target: T1, human T-bet (Homo sapiens, UniProt Q9UL17)
T1 construct: expressed in transfected cells; host or cells: engineered HEK cells (HEKT-bet)
T1 sequence (Q9UL17 1-535): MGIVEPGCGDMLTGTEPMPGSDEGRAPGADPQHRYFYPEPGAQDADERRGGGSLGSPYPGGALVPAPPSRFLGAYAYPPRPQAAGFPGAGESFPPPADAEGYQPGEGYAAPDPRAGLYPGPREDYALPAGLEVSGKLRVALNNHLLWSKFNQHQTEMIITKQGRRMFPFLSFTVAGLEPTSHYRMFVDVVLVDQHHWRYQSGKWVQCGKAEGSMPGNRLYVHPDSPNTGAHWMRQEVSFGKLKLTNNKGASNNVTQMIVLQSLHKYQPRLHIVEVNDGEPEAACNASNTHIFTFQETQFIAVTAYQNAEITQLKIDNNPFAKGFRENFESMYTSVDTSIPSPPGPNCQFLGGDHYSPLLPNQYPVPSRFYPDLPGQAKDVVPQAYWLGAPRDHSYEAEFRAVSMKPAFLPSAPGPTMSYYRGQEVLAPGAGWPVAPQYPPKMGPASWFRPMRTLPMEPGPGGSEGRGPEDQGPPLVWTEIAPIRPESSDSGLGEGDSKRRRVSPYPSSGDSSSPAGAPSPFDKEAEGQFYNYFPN
Assay: HEKT-bet-luc assay (T-bet dependent luciferase reporter in engineered HEK cells)
Type: cell-based
Method: HEKT-bet-luc assay: This assay measures a T-bet dependent reporter (luciferase) activity in engineered HEK cells that express a human T-bet and a T-box responsive element driving luciferase reporter. HEKT-bet cells were plated at 2×10^4/well in 96-well plate and compound was added into cell culture for 24 hours. Luciferase activity was measured by adding 50 μl of Steady-Glo reagent (Promega) and samples were read in Victor V reader (PerkinElmer). The IC50 values were calculated utilizing a maximum value corresponding to the amount of luciferase in the absence of a test compound and a minimum value corresponding to a test compound value obtained at maximum inhibition.
Determination of Normalized HEKT-bet IC50 values: Compounds were assayed in microtiter plates. Each plate included a reference compound which was ER-213038. The un-normalized IC50 value for a particular compound was divided by the IC50 value determined for the reference compound in the same microtiter plate to provide a relative potency value. The relative potency value was then multiplied by the established potency of the reference compound to provide the normalized HEKT-bet IC50 value. […] The IC50 values provided herein were obtained using this normalization method.

[1] = Table 4, HEKT-bet cells, compound 24 hours, IC50 normalized to reference ER-213038, read-out: IC50

Row | SMILES | IC50 [1] [nM] | IC50 (reference compound used for normalization on each microtiter plate, read-out: established potency of the reference compound (HEKT-bet IC50)) [nM]
1 | COCCN1C(=O)N(Cc2cccc(OC)c2)C(=O)C12CCN(Cc1cc(OC)cc(OC)c1F)CC2 [Example 146] | 142 | –
2 | COCCN1C(=O)N(Cc2cccc(OC)c2)C(=O)C12CCN(Cc1ccc3c4c(cccc14)CC3)CC2 [Example 147] | 142 | –
3 | COc1cccc(CN2C(=O)N(C)C3(CCN(Cc4cccc5ccccc45)CC3)C2=O)c1 [Example 148] | 143 | –
4 | COCCN1C(=O)N(Cc2cccc(OC)c2)C(=O)C12CCN(Cc1cc(C)ccc1C)CC2 [Example 150] | 147 | –
5 | COCCN1C(=O)N(Cc2ccc3ccccc3c2)C(=O)C12CCN(Cc1cc(OC)cc(OC)c1)CC2 [Example 151] | 148 | –
6 | COCCN1C(=O)N(C/C=C/c2cccc3ccccc23)C(=O)C12CCN(Cc1ccccc1)CC2 [Example 152] | 149 | –
7 | COCCN1C(=O)N(CCCOc2ccccc2)C(=O)C12CCN(Cc1cccc3ccccc13)CC2 [Example 153] | 151 | –
8 | COCN1C(=O)N(Cc2cc(OC)cc(OC)c2)C(=O)C12CCN(Cc1cc(OC)cc(OC)c1)CC2 [Example 154] | 153 | –
9 | COc1cccc(CN2C(=O)N(Cc3ccc(-n4cccn4)cc3)C3(CCN(Cc4cc(OC)cc(OC)c4)CC3)C2=O)c1 [Example 155] | 159 | –
10 | COCCN1C(=O)N(Cc2cccc(OC)c2)C(=O)C12CCN(Cc1cccc(-c3ccc(O)cc3)c1)CC2 [Example 156] | 159 | –
11 | COCCN1C(=O)N(Cc2cccc(OC)c2)C(=O)C12CCN(Cc1cc3ccccc3c3ccccc13)CC2 [Example 157] | 161 | –
12 | CCc1ccccc1CN1CCC2(CC1)C(=O)N(Cc1cccc(OC)c1)C(=O)N2CCOC [Example 158] | 164 | –
13 | COCCN1C(=O)N(Cc2cccc(OC)c2)C(=O)C12CCN(Cc1cccc(Br)c1)CC2 [Example 159] | 166 | –
14 | COCCN1C(=O)N(Cc2cccc(OC)c2)C(=O)C12CCN(Cc1c3ccccc3cc3ccccc13)CC2 [Example 160] | 168 | –
15 | COCCN1C(=O)N(Cc2cccc(OC)c2)C(=O)C12CCN(Cc1ccc3ccccc3c1)CC2 [Example 161] | 169 | –
16 | COCCN1C(=O)N(Cc2ccc3ccccc3c2)C(=O)C12CCN(Cc1cccc(C)c1)CC2 [Example 162] | 172 | –
17 | COCCN1C(=O)N(Cc2cccc(F)c2)C(=O)C12CCN(Cc1cc(OC)cc(OC)c1)CC2 [Example 163] | 182 | –
18 | COCCN1C(=O)N(Cc2cccc(OC)c2)C(=O)C12CCN(Cc1c(C)c(C)c(C)c(C)c1C)CC2 [Example 164] | 182 | –
19 | COCCN1C(=O)N(C/C=C/c2ccccc2F)C(=O)C12CCN(Cc1ccccc1)CC2 [Example 165] | 183 | –
20 | COCCN1C(=O)N(Cc2ccc3ccccc3c2)C(=O)C12CCN(Cc1cccc(OC)c1)CC2 [Example 166] | 184 | –
21 | CCN1C(=O)N(Cc2cccc(OC)c2)C(=O)C12CCN(Cc1cc(OC)cc(OC)c1)CC2 [Example 167] | 187 | –
22 | CCN1C(=O)N(Cc2cccc(OC)c2)C(=O)C12CCN(Cc1cccc3ccccc13)CC2 [Example 168] | 190 | –
23 | COCCN1C(=O)N(Cc2ccccc2)C(=O)C12CCN(Cc1cc(OC)cc(OC)c1)CC2 [Example 196] | 268 | –

Further lines, results first:

Row | IC50 [1] [nM] | IC50 (reference compound used for normalization on each microtiter plate, read-out: established potency of the reference compound (HEKT-bet IC50)) [nM] | SMILES
24 | 190 | – | COCCN1C(=O)N(Cc2cccc(OC)c2)C(=O)C12CCN(Cc1cccc3c1Cc1ccccc1-3)CC2 [Example 169]
25 | – | 190 | COCCN1C(=O)N(Cc2cccc(OC)c2)C(=O)C12CCN(Cc1cccc(OC)c1)CC2 [Example 170]
26 | 191 | – | COCCN1C(=O)N(C/C=C/c2ccccc2)C(=O)C12CCN(Cc1ccccc1)CC2 [Example 171]
27 | 193 | – | COCCN1C(=O)N(Cc2cccc(OC)c2)C(=O)C12CCN(Cc1csc3ccccc13)CC2 [Example 172]
28 | 196 | – | COc1cccc(CN2C(=O)N(Cc3cccnc3)C3(CCN(Cc4cccc5ccccc45)CC3)C2=O)c1 [Example 173]
29 | 198 | – | COc1cccc(CN2CCC3(CC2)NC(=O)N(C/C=C/c2ccccc2)C3=O)c1 [Example 174]
30 | 200 | – | COCCN1C(=O)N(Cc2cccc(OC)c2)C(=O)C12CCN(Cc1c3ccccc3c(C)c3ccccc13)CC2 [Example 175]
31 | 203 | – | COCCN1C(=O)N(Cc2cccc(OC)c2)C(=O)C12CCN(Cc1cccc(N3CCCC3)c1)CC2 [Example 176]
32 | 205 | – | CCN1C(=O)N(Cc2ccc3ccccc3c2)C(=O)C12CCN(Cc1cc(OC)cc(OC)c1)CC2 [Example 177]
33 | 205 | – | COCCN1C(=O)N(Cc2cccc(OC)c2)C(=O)C12CCN(Cc1cccc(OC)c1)CC2 [Example 178]
34 | 215 | – | COc1cccc(CN2C(=O)N(Cc3ccccn3)C3(CCN(Cc4cc(OC)cc(OC)c4)CC3)C2=O)c1 [Example 179]
35 | 223 | – | COCCN1C(=O)N(Cc2cccc(OC)c2)C(=O)C12CCN(Cc1cc3c(OC)cccc3cc1OC)CC2 [Example 180]
36 | 225 | – | COCCN1C(=O)N(Cc2cccc(OC)c2)C(=O)C12CCN(Cc1cccc(-c3ccccc3)c1)CC2 [Example 181]
37 | 226 | – | O=C1N(C/C=C/c2ccccc2)C(=O)C2(CCN(Cc3cccc4ccccc34)CC2)N1Cc1ccc(-n2cccn2)cn1 [Example 182]
38 | 230 | – | COCCN1C(=O)N(Cc2cc(OC)cc(OC)c2)C(=O)C12CCN(Cc1cc(OC)cc(OC)c1)CC2 [Example 183]
39 | 235 | – | CN1C(=O)N(C/C=C/c2ccccc2)C(=O)C12CCN(Cc1cccc3ccccc13)CC2 [Example 184]

Row | IC50 [1] [nM] | IC50 (reference compound used for normalization on each microtiter plate, read-out: established potency of the reference compound (HEKT-bet IC50)) [nM] | SMILES
40 | 235 | – | O=C1N(C/C=C/c2ccccc2)C(=O)C2(CCN(Cc3cccc4ccccc34)CC2)N1Cc1cccnc1 [Example 185]
41 | 236 | – | COCCN1C(=O)N(Cc2cccc(OC)c2)C(=O)C12CCN(Cc1c(C)cc(C)cc1C)CC2 [Example 186]
42 | 243 | – | COCCN1C(=O)N(Cc2ccc3ccccc3c2)C(=O)C12CCN(Cc1cccc3ccccc13)CC2 [Example 187]
43 | 246 | – | COCCN1C(=O)N(CCCc2ccccc2)C(=O)C12CCN(Cc1cc(OC)cc(OC)c1)CC2 [Example 188]
44 | 247 | – | COCCN1C(=O)N(Cc2cccc(N(C)C)c2)C(=O)C12CCN(Cc1ccccc1)CC2 [Example 189]
45 | 251 | – | COCCN1C(=O)N(C/C=C/c2ccc(C)cc2)C(=O)C12CCN(Cc1ccccc1)CC2 [Example 190]
46 | 253 | – | COCCN1C(=O)N(Cc2cccc(OC)c2)C(=O)C12CCN(Cc1cccc3ccccc13)CC2 [Example 191]
47 | 260 | – | COCCN1C(=O)N(Cc2cccc(OC)c2)C(=O)C12CCN(Cc1c(C)c(C)cc(C)c1C)CC2 [Example 192]
48 | 261 | – | COCCN1C(=O)N(Cc2cccc(OC)c2)C(=O)C12CCN(Cc1ccccc1C)CC2 [Example 193]
49 | 262 | – | COCCN1C(=O)N(Cc2cccc(OC)c2)C(=O)C12CCN(Cc1ccc(N(C)C)c3ccccc13)CC2 [Example 194]
50 | 264 | – | COCCN1C(=O)N(CCCOc2ccccc2)C(=O)C12CCN(Cc1cc(OC)cc(OC)c1)CC2 [Example 195]
51 | 270 | – | CCN1C(=O)N(Cc2cccc(OC)c2)C(=O)C12CCN(Cc1ccc3ccccc3c1)CC2 [Example 197]
52 | 279 | – | COCCN1C(=O)N(Cc2cccc(OC)c2)C(=O)C12CCN(Cc1ccc(C)cc1C)CC2 [Example 199]
53 | 285 | – | COc1cccc(CN2C(=O)N(CCO)C3(CCN(Cc4cc(OC)cc(OC)c4)CC3)C2=O)c1 [Example 200]
54 | 288 | – | COc1cc(CN2CCC3(CC2)C(=O)N(C/C=C/c2ccccc2)C(=O)N3Cc2cccc3cccnc23)cc(OC)c1 [Example 201]
